Literature values as cited in article PMC6270655, “Mixed Antimony(V) Complexes with Different Sugars to Modulate the Oral Bioavailability of Pentavalent Antimonial Drugs” (Molecules, 2014).

Design: method as in PMID 22573856

half-life: ~ 150 h
SMILES: CCCCCCCCCCCCCCCCOP(=O)([O-])OCC[N+](C)(C)C [miltefosine, hexadecylphosphocholine]
